# Laboratory results: ChEMBL document CHEMBL5113482, “Discovery of fused benzimidazole-imidazole autophagic flux inhibitors for treatment of triple-negative breast cancer” (Eur J Med Chem, 2022)
# Calls of active or inactive are those of the source. No cut-off for these calls is given here.
# Columns and labels:
# [1] = test system: MDA-MB-468; assay: Antiproliferative activity against human MDA-MB-468 cells assessed as cell growth inhibition measured after 48 hrs by MTT assay; type: functional, cell-based; conditions: MDA-MB-468, 48 h
# [2] = test system: SCC-25; assay: Antiproliferative activity against human SCC-25 cells assessed as cell growth inhibition measured after 48 hrs by MTT assay; type: functional, cell-based; conditions: SCC-25, 48 h
# [3] = test system: PC-3; assay: Antiproliferative activity against human PC-3 cells assessed as cell growth inhibition measured after 48 hrs by MTT assay; type: functional, cell-based; conditions: PC-3, 48 h
# [4] = test system: ASPC1; assay: Antiproliferative activity against human ASPC cells assessed as cell growth inhibition measured after 48 hrs by MTT assay; type: functional, cell-based; conditions: ASPC1, 48 h
# [5] = test system: LN-229; assay: Antiproliferative activity against human LN-229 cells assessed as cell growth inhibition measured after 48 hrs by MTT assay; type: functional, cell-based; conditions: LN-229, 48 h
# [6] = molecular target: T1, Structural maintenance of chromosomes protein 1A (Homo sapiens) (UniProt Q14683); assay: Activation of SMC1 phosphorylation in human MDA-MB-231 cells at 5 to 20 uM measured after 6 to 48 hrs by Western blot analysis; type: cell-based; conditions: filed as activator, dose 5-20 µM, time 6-48 hrs
# T1 sequence (whole entry): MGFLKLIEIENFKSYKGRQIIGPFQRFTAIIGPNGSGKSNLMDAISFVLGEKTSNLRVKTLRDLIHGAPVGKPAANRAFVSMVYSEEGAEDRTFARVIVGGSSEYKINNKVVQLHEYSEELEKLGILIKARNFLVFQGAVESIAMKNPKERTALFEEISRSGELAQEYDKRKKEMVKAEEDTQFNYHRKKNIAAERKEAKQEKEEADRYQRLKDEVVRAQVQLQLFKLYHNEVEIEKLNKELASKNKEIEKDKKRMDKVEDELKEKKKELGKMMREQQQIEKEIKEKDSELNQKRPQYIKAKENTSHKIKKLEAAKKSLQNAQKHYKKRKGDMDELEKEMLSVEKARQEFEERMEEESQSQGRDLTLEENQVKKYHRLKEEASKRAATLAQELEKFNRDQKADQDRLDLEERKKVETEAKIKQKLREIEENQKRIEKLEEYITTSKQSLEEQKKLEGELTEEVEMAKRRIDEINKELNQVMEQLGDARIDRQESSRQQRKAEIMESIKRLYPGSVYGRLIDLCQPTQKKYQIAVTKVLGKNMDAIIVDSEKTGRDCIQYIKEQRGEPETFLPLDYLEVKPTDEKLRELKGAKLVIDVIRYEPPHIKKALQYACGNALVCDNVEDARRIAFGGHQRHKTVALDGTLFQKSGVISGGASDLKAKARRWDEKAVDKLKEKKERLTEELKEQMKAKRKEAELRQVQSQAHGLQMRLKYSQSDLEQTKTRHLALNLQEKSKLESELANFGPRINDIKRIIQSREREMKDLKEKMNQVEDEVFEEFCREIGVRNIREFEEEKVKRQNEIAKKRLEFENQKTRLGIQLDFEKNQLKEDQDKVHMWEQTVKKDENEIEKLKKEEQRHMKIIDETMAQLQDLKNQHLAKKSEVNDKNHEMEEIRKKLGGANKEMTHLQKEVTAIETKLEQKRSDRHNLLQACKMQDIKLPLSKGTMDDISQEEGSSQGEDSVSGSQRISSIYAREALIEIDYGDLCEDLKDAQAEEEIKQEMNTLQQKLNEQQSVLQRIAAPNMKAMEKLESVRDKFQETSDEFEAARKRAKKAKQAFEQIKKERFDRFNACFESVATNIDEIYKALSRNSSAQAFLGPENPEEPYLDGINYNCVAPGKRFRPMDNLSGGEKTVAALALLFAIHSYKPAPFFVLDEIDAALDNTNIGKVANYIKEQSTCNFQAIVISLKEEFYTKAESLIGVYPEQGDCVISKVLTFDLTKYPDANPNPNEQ
# [7] = test system: MDA-MB-468; assay: Induction of DNA damage in human MDA-MB-468 cells assessed as reduction in BRCA2 expression measured after 6 to 48 hrs by Western blot analysis; type: functional, cell-based; conditions: dose 5-20 µM, time 6-48 hrs, DDE = dose-dependent effect
# [8] = test system: MDA-MB-231; assay: Inhibition of autophagic flux in human MDA-MB-231 cells assessed as increase in nuclear p62 expression measured after 48 hrs by immunofluorescence analysis; type: functional, cell-based; conditions: dose 5-20 µM, DDE = dose-dependent effect
# [9] = test system: MDA-MB-231; assay: Inhibition of autophagic flux in human MDA-MB-231 cells assessed as increase in cytoplasmic p62 expression measured after 48 hrs by Western blot analysis; type: functional, cell-based; conditions: dose 5-20 µM, DDE = dose-dependent effect
# [10] = test system: MDA-MB-231; assay: Inhibition of autophagic flux in human MDA-MB-231 cells assessed as reduction in RNF8 expression at 5 to 20 uM measured after 6 to 48 hrs by Western blot analysis; type: functional, cell-based; conditions: dose 5-20 µM, time 6-48 hrs
# [11] = test system: MDA-MB-468; assay: Inhibition of autophagic flux in human MDA-MB-468 cells assessed as reduction in RNF8 expression at 5 to 20 uM measured after 6 to 48 hrs by Western blot analysis; type: functional, cell-based; conditions: dose 5-20 µM, time 6-48 hrs
# [12] = test system: MDA-MB-231; assay: Cell cycle arrest in human MDA-MB-231 cells assessed as reduction in cyclin A expression measured after 48 hrs by Western blot analysis; type: functional, cell-based; conditions: dose 5-20 µM, DDE = dose-dependent effect
# [13] = test system: MDA-MB-231; assay: Cell cycle arrest in human MDA-MB-231 cells assessed as reduction in CDK2 expression measured after 48 hrs by Western blot analysis; type: functional, cell-based; conditions: dose 5-20 µM, DDE = dose-dependent effect
# [14] = test system: MDA-MB-468; assay: Cell cycle arrest in human MDA-MB-468 cells assessed as reduction in cyclin B expression measured after 48 hrs by Western blot analysis; type: functional, cell-based; conditions: dose 5-20 µM, DDE = dose-dependent effect
# [15] = test system: MDA-MB-468; assay: Cell cycle arrest in human MDA-MB-468 cells assessed as increase in p21 expression measured after 48 hrs by Western blot analysis; type: functional, cell-based; conditions: dose 5-20 µM, DDE = dose-dependent effect
# [16] = test system: MDA-MB-468; assay: Cell cycle arrest in human MDA-MB-468 cells assessed as increase in CHK1 phosphorylation at Ser 345 residue measured after 48 hrs by Western blot analysis; type: functional, cell-based; conditions: dose 5-20 µM, DDE = dose-dependent effect
# [17] = test system: MDA-MB-231; assay: Induction of apoptosis in human MDA-MB-231 cells assessed as increase in Bak expression measured after 48 hrs by Western blot analysis; type: functional, cell-based; conditions: dose 5-20 µM, DDE = dose-dependent effect
# [18] = test system: MDA-MB-231; assay: Induction of apoptosis in human MDA-MB-231 cells assessed as increase in Bim expression measured after 48 hrs by Western blot analysis; type: functional, cell-based; conditions: dose 5-20 µM, DDE = dose-dependent effect
# [19] = test system: MDA-MB-231; assay: Induction of apoptosis in human MDA-MB-231 cells assessed as increase in Bax expression measured after 48 hrs by Western blot analysis; type: functional, cell-based; conditions: dose 5-20 µM, DDE = dose-dependent effect
# [20] = test system: MDA-MB-231; assay: Induction of apoptosis in human MDA-MB-231 cells assessed as increase in cleaved caspase-9 expression measured after 48 hrs by Western blot analysis; type: functional, cell-based; conditions: dose 5-20 µM, DDE = dose-dependent effect
# [21] = test system: MDA-MB-468; assay: Induction of apoptosis in human MDA-MB-468 cells assessed as increase in cleaved PARP expression measured after 48 hrs by Western blot analysis; type: functional, cell-based; conditions: dose 5-20 µM, DDE = dose-dependent effect
# [22] = test system: MDA-MB-231; assay: Antitumor activity against human MDA-MB-231 cells xenografted in ip dosed NOD/SCID mouse assessed as reduction in tumor growth administered at 3 days interval for 24 days and measured during compound dosing by caliper method; type: functional, organism-based; conditions: dose 5-15 mg/kg, time 24.0 day, DDE = dose-dependent effect
# [23] = test system: MDA-MB-231; assay: Antitumor activity against human MDA-MB-231 cells xenografted in NOD/SCID mouse assessed as reduction in cell count at 5 to 15 mg/kg, ip administered at 3 days interval for 24 days and measured on day 25 by H and E staining based assay; type: functional, organism-based; conditions: dose 5-15 mg/kg, time 25.0 day
smiles,measurement,setting,value
O=C(NC1CCCCC1)c1[nH]cnc1-c1nc2ccccc2[nH]1,IC50,[1],6.03 µM
same,IC50,[2],18.6 µM
same,IC50,[3],17.5 µM
same,IC50,[4],26.9 µM
same,IC50,[5],61.4 µM
same,Activity,[6],Active
same,Activity,[7],Dde
same,inhibition,[8],Dde
same,inhibition,[9],Dde
same,inhibition,[10],Active
same,inhibition,[11],Active
same,Activity,[12],Dde
same,Activity,[13],Dde
same,Activity,[14],Dde
same,Activity,[15],Dde
same,Activity,[16],Dde
same,Activity,[17],Dde
same,Activity,[18],Dde
same,Activity,[19],Dde
same,Activity,[20],Dde
same,Activity,[21],Dde
same,TGI,[22],Dde
same,Activity,[23],Active
